Ends that are not written are not given here.
Columns and labels:
[1] = test system: HT1080 (IFNγR2 null mutant and JAK2 null mutant) cells; assay: Etoposide-induced apoptosis in HT1080-derived IFNγR2 null and Jak2 null cells (Hoechst nuclear staining); format: cell-based, human; conditions: cells lacking IFNγR2 and Jak2, 10 μM etoposide for 24 h
Experimental: HT1080 (wild type, IFNγR2 null mutant and JAK2 null mutant) cells were cultured in Dulbecco's Modified Eagle's Medium (DMEM) supplemented with 10% fetal bovine serum (FBS). HeLa, Human Embryonic Kidney (HEK) 293 and HEK293T cells were purchased from ATCC, and cultured in DMEM supplemented with 10% FBS. LNCap and PC3 cells were purchased from ATCC and cultured in DMEM F12 medium supplemented with 10% FBS. RWPE1 and RWPE2 were purchased from ATCC and cultured in keratinocytes-SFM plus supplements medium (Gibco). Primary mammary epithelial (4A100) cultures were derived from organoids isolated from discarded mammary tissue acquired from patients undergoing reduction mammoplasty surgery. Anonymized specimens were acquired from patients who had given written consent, through the Tissue Procurement and Histology Core Facility of the Case Comprehensive Cancer Center (Case), under a Case CCC IRB approved protocol. Primary epithelial cultures were grown in M87A+X medium. Human HME1 cells (Clontech) were grown in medium 171 with mammary epithelial growth supplement (Cascade Biologics) and penicillin-streptomycin.42 Human breast cancer cell line MDA-MD468 was cultured in RPMI, 5% FBS, supplemented with L-glutamine, penicillin-streptomycin and fungizone (Gibco). […]
Cells were cultured overnight in DMEM supplemented with 10% FBS. […] Transfection efficiency was analyzed by the expression of the EGFP-tagged proteins.
(§1) Apoptosis was induced by transfecting the cells with pcDNA3-human Bax, or pcDNA3-human Bak, or pcDNA3-human Bim EL, or by treatment with etoposide (10 μM) or staurosporine (100 nM). To determine the induction of apoptosis by different apoptotic stresses, cells were stained with Hoechst 33258 dye, and the numbers of cells with apoptotic nuclei were counted using fluorescence microscopy. Three hundred cells were analyzed in triplicate samples. […] Caspase activity were measured by using a fluorogenic caspase 3 substrate II (Calbiochem), IFNγR2 constructs were cloned in pEGFP-C2 (IFNγR2wild type, IFNγR21-295 and IFNγR2296-337) vector.

human Bim EL = assay: Apoptosis induced by Bim overexpression in HEK293T cells; format: cell-based; conditions: 24 h after transfection
Experimental: (§2) Cells were cultured overnight in DMEM supplemented with 10% FBS. The transfections were performed using […]® (Qiagen, Valencia, Calif.) in accordance with the manufacturer's instructions. Transfection efficiency was analyzed by the expression of the EGFP-tagged proteins.
as §1
(§3) For Bax, Bak or Bim EL overexpression, cells were transfected with either 1 μg pcDNA3-human Bax, 1 μg pcDNA3-human Bak, or 1 μg pcDNA3 human Bim EL, and 4 μg of pEGFP plasmid encoding IFNγR2, and the apoptosis or caspase activity was determined 24 h after the transfection.

Bax [2] = target: T1, Bax (Homo sapiens, UniProt Q07812); assay: Staurosporine-induced Bax activation in HeLa cells (6A7 antibody immunostaining); format: cell-based; parameters: endogenous in cells; host or cells: HeLa; conditions: staurosporine 100 nM, 3 h
T1 sequence (Q07812 whole entry): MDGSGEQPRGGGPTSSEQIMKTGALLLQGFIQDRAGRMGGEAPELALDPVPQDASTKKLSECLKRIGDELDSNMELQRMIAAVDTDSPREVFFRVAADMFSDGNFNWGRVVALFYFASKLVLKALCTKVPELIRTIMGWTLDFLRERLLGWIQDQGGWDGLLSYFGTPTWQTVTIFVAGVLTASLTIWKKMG
Experimental: HeLa cells were transiently transfected with pEGFP-C2-IFNγR2 (wild type 1-295, or 296-337) using […]® (Qiagen, Valencia, Calif.) in accordance with the manufacturer's instructions. Four micograms of the plasmid were used to transfect cells cultured in 6-cm diameter dishes. After 24 h of transfection, the cells were treated with staurosporine (100 nM) for 3 h. Then, the cells were washed with phosphate buffer pH 7.4 (PBS), fixed using paraformaldehyde (1%), permeabilized with Triton X-100 (0.02%), blocked with goat serum, and the activation of Bax was analyzed by immunocytochemistry using monoclonal Bax 6A7 antibody (BDPharmingen) and ALEXA FLUOR® 568-labeled anti-mouse IgG secondary antibody (Invitrogen).

Bax [3] = target: T1, Bax; assay: Apoptosis induced by Bax overexpression in HEK293 cells (Hoechst nuclear staining); format: cell-based; parameters: expressed in transfected cells; host or cells: HEK293; conditions: HEK293 cells co-transfected with pcDNA3-h Bax and pEGFP-C2-IFNγR2 construct, 24 h after transfection
Experimental: as §2, §1, §3

[4] = test system: organotypic hippocampal slice cultures; assay: Neuronal cell death in organotypic hippocampal slice cultures (PI uptake, Nissl staining); format: cell-based; conditions: for Suppression of oligomeric Aβ-induced neuronal loss (Nissl staining): peptide co-applied with oligomeric Aβ; for Prevention of oligomeric Aβ-induced PI uptake: peptide co-applied with oligomeric Aβ (500 nM), after 24-h treatment
Experimental: (§4) Organotypic hippocampal slice cultures were prepared as described previously. Briefly, hippocampal slice cultures were prepared using 7-10-day-old mouse pups. Slices were cut at 400 μm on a Mcllwain tissue chopper, transferred to Millicell membrane inserts ([…]; Millipore), and placed in 6-well culture plates. The culture medium consisted of basal Eagle's medium with Earle's balanced salt solution, 20% heat-inactivated horse serum, enriched with 5.6 mM glucose. The medium was changed every other day. The effect of oligomeric Ab (500 nM) was tested in the slices that had been maintained for 11-14 days in vitro. Aβ oligomer or reversed sequence of Aβ1-42 control peptide (Aβ42-1) was added to cultures in serum-free medium and, after the treatment, the hippocampal slices were rinsed twice in ice-cold phosphate-buffered saline (PBS), and then harvested by removing the Millicell membrane insert.
To determine neuronal cell death in the hippocampal slices, PI (5 μg/ml) was added to the slice culture medium. Images were acquired through an AxioCam camera on an Axiovert 200M microscope (Zeiss, Oberkochen, Germany). Fluorescent intensity was measured using Image J (NIH, Bethesda, Md., USA). Hematoxylin and eosin (H&E) and Niss1 staining was also performed for routine histochemical and morphological analyses.

[5] = test system: Bim, Bcl-2, Bax, caspase-3; assay: Western blot analysis of Bim, Bcl-2, Bax and cleaved caspase-3 in hippocampal slice cultures; format: cell-based, mouse
Experimental: as §4
The protein concentration was determined by BCA assay (Pierce, Rockford, Ill., USA). The extracted proteins were separated on 10 or 12% SDS-polyacrylamide gel and transferred onto polyvinylidene difluoride membranes. The blots were blocked with 10% non-fat milk in TBS-T for 1 h at room temperature, and then treated with primary antibodies diluted with 1% non-fat milk and incubated overnight at 4° C. The following antibodies were used for western blot analysis: anti-caspase-3 (1:1000; Santa Cruz Biotechnology, Santa Cruz, Calif., USA), anti-Bim (1:1000; Stressgen, Farmingdale, N.Y., USA), anti-Bcl-2 (1:1000; Stressgen) and 6A7 (conformational specific Bax antibody) (1:1000; BD Pharmingen, San Diego, Calif., USA).

Bax [6] = target: T2, Bax (Mus musculus, UniProt Q07813); assay: Immunocytochemistry with 6A7 antibody (active Bax) in hippocampal slice cultures; format: cell-based
T2 construct: from tissue; host or cells: mouse hippocampal slice culture
T2 sequence (Q07813 whole entry): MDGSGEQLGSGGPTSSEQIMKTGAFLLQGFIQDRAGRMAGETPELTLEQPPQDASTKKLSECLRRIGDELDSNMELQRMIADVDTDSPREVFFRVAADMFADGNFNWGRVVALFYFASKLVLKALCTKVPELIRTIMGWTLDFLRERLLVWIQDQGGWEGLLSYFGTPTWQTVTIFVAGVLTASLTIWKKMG
Experimental: as §4
Cultured hippocampal slices were rinsed with icecold PBS once and fixed for 2 h with 4% paraformaldehayde in 0.1M PBS. After washing with PBS, sections were permeabilized overnight with PBS containing 0.2% Triton X-100. At the end of the permeabilization blocking solution, 10% normal goat serum in PBS was applied for 4 h at room temperature. After washing with PBS, primary antibody was added and incubated for 24-48 h at 4° C. […] Images were then analyzed with the Axiovision software (Zeiss).

[7] = test system: hippocampal slice cultures; assay: Cell permeability of FITC-tagged peptides in hippocampal slice cultures; format: cell-based, mouse; conditions: after 24-h treatment
Text: In this study, in addition to utilizing Bax knockout (KO) mice, we utilized BIP to examine the role of Bax in oligomeric Aβ-induced neurotoxicity. BIP used in this study consists of five amino acids, VPTLK, a sequence that is known to inhibit Bax activation. […] Both peptides were tagged with fluorescein isothiocyanate (FITC) so that intracellular delivery can be tracked by FITC signal.

[8] = test system: C57BL6/J mice hippocampus; assay: Intrahippocampal injection of oligomeric Aβ in mice; format: in vivo, mouse
Experimental: C57BL6/J mice (The Jackson Laboratories; 2-3-month-old) were anesthetized with pentobarbital and placed in a stereotaxic frame. Injection was made using a 10-μl microsyringe (Hamilton, Reno, Nev., USA). […] Control animals were prepared identically and injected with the same volume and concentration of Aβ42-1 in PBS. Injections were made at stereotaxic coordinates from bregma; antereoposterior (AP)=2.3 mm, mediolateral (ML)=2.5 mm and doroventral (DV)=−2.5 mm according to a previous report. This corresponds to a site in the dorsal hippocampus in the apical dendritic zones of the CA1 region near the hippocampal fissure. Mice were killed 10 or 20 days after injection, brains dissected out, fixed in 10% buffered-formalin and paraffin-embedded. For brain tissue sections, 6-μm-thick serial sections were cut, mounted onto slides and rehydrated according to standard protocols.
Cultured hippocampal slices were rinsed with icecold PBS once and fixed for 2 h with 4% paraformaldehayde in 0.1M PBS. After washing with PBS, sections were permeabilized overnight with PBS containing 0.2% Triton X-100. At the end of the permeabilization blocking solution, 10% normal goat serum in PBS was applied for 4 h at room temperature. After washing with PBS, primary antibody was added and incubated for 24-48 h at 4° C. After thorough washing of the sections in PBS, a secondary antibody labeled with either Alexa Fluor (Life Technologies, Grand Island, N.Y., USA) 488 or 568 (1:300) was added and incubated for 4 h at room temperature. All of the experiments contained at least one sample incubated without a primary antibody to exclude non-specific signal. Nuclei were visualized with DAPI. Images were acquired through an AxioCam camera on an Axiovert 200M microscope (Zeiss). Images were then analyzed with the Axiovision software (Zeiss).
Detection of 3′-OH termini of DNA strand breaks was performed using in situ cell death detection kit (Roche). Briefly, the tissue sections were treated with proteinase K (20 μg/ml in 10 mmol/l Tris-HCl, pH 7.4) for 30 min at 37° C. after rehydration. After rinsing with PBS, TUNEL reaction mixture containing terminal deoxynucleotidyl transferase and fluorescence-labeled nucleotide was applied for 1 h 37° C. The samples were then washed and mounted using Aquamount (Southern Biotech, Birmingham, Ala., USA).

Row | Molecule | Inhibition of etoposide-induced apoptosis [1] | Inhibition of STS-induced Bax activation (6A7 Ab-positive cells in GFP-positive cells) (Bax [2]) | Inhibition of apoptosis induced by Bax overexpression (Bax [3]) | Suppression of oligomeric Aβ-induced neuronal loss (Nissl staining) [4] | Prevention of oligomeric Aβ-induced PI uptake [4] | Cell permeability (green fluorescence of FITC-tagged peptide in neuronal cells) [7] | further results
1 | IFNγR2296-337: mutant encoding amino acids 296-337 of IFNγR2, lacking the Jak2-binding domain; expressed as EGFP fusion (KDPTQPILEALDKDSSPKDDVWDSVSIISFPEKEQEDVLQTL; also: EGFP fusion; listed as Homo sapiens) | able to inhibit etoposide-induced apoptosis | inhibited STS-induced Bax activation | able to inhibit apoptosis induced by Bax overexpression | – | – | – | Inhibition of apoptosis induced by Bim overexpression (human Bim EL): able to inhibit apoptosis induced by Bim overexpression
2 | VPTLK (also: FITC tag, site not given here) [BIP] | – | – | – | significantly suppressed | significantly prevented PI uptake | equally penetrated neuronal cells | Suppression of oligomeric Aβ-induced caspase-3 activation (immunoblot) ([5]; peptide co-applied with oligomeric Aβ): significantly suppressed; Suppression of oligomeric Aβ-induced conformational change of Bax (6A7) (Bax [6]; slices treated with oligomeric Aβ for 48 h): suppresses oligomeric Aβ-induced conformational change of Bax
3 | KLVPT [control peptide] | – | – | – | failed to prevent neuronal cell death | did not affect the level of PI uptake | equally penetrated neuronal cells | –
4 | oligomeric Aβ: soluble oligomeric Aβ prepared from synthetic Aβ1-42 peptide (AnaSpec) | – | – | – | – | – | – | Neuronal cell death induced by oligomeric Aβ in slice culture from bax−/− mice ([4]; bax−/− versus wild-type slices, 500 nM, 48 h): dramatically reduced; PI uptake / number of PI-positive cells (neuronal cell death) ([4]; wild-type slices, 500 nM, 48 h of treatment): significantly increased; Level of Bax ([5]; oligomeric Aβ-treated brain slices): not affected; Expression of Bim ([5]; oligomeric Aβ-treated brain slices, time-dependent): increased the expression of Bim; Number of 6A7-positive cells (active form of Bax) (Bax [6]; slice cultures, 24 h after treatment): significantly increased; Level of Bim in hippocampus ([8]; 10 days after injection): dramatically increased; Number of neurons containing the active form of Bax (6A7 antibody) ([8]; 10 days after injection): dramatically increased; Neuronal cell death in hippocampus ([8]; WT mouse, 20 days after intrahippocampal injection): induced neuronal cell death; Number of TUNEL-positive neurons ([8]; intrahippocampal injection): significantly increased
5 | IFNγR21-295: mutant encoding amino acids 1-295 of IFNγR2, retaining Jak2-binding domain but not the C-terminal 41 amino acids (protein, left off: large carriers) APPDPLSQLPAPQHPKIRLYNAEQVLSWEPVALSNSTRPVVYQVQFKYTDSKWFTADIMSIGVNCTQITATECDFTAASPSAGFPMDFNVTLRLRAELGALHSAWVTMPWFQHYRNVTVGPPENIEVTPGEGSLIIRFSSPFDIADTSTAFFCYYVHYWEKGGIQQVKGPFRSNSISLDNLKPSRVYCLQVQAQLLWNKSNIFRVGHLSNISCYETMADASTELQQVILISVGTFSLLSVLAGACFFLVLKYRGLIKYWFHTPPSIPLQIEEYL | could not | did not inhibit Bax activation | could not protect cells from Bax | – | – | – | –
